The values below come from BindingDB's records for patent US10208011 (G1 Therapeutics, Inc., 2019).

The target in experiment [1] is T1, Estrogen receptor (Homo sapiens, UniProt P03372).
T1 sequence (P03372 whole entry): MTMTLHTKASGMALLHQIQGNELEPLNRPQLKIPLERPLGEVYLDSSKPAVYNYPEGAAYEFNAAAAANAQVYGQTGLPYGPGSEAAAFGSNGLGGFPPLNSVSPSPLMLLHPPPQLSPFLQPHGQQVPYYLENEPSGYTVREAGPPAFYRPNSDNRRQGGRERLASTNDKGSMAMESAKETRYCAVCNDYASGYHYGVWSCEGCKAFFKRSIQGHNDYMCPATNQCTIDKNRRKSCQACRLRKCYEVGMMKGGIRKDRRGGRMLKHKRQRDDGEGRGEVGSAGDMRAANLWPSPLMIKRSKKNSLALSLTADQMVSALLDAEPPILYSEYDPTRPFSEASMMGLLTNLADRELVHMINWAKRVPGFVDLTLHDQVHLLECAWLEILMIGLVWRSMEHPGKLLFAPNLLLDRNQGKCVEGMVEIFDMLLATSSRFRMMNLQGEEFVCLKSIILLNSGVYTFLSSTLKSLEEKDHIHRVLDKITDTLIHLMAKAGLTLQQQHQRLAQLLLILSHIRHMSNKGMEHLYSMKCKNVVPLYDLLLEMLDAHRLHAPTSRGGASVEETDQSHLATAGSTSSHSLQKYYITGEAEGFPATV
The experiment can be described thus: Human ERalpha Reporter Assa. As to the method:
All reagents used in this assay was supplied in the Human ERα Reporter Assay by Indigo Biosciences # IB00401. In an effort to screen selective estrogen receptor degraders (SERDs), the Human ERα Reporter Assay, supplied by Indigo Biosciences, was utilized to quantify antagonist functional activity against the human estrogen receptor. Reporter cells were thawed at 37° C. and added to pre-warmed to 37° C. cell recovery medium (CRM). Stock concentration of 17β-estradiol was serially diluted in CRM. […] Cells plus 17β-estradiol were dispensed in a kit-supplied white walled 96-well plate. Concentrated stocks of test compounds were diluted to 2× working concentrations in cell screening medium (CSM). 2× concentrated compounds were added to the plated cells in a dose-dependent manner resulting in a final concentration range of 1E-11 to 1E-5 M and a final 17β-estradiol concentration of 8E-10 M. Assay plates were incubated for 24 hours in a humidified 37° C. incubator. Culture medium was removed from the assay plates by inversion. Detection substrate and buffer was warmed to room temperature, mixed thoroughly, and immediately added to the assay plates. […] Luminescence was measured in a Synergy HTX luminescence plate reader. Data is processed utilizing GraphPad Prism 7 by graphing the relative light units measured at each compound concentration.

Experiment [2] deals with T1, Estrogen receptor. Kind of experiment: Estrogen Receptor (ER) Degradation Assay. As for the experimental part: A screening strategy was implemented utilizing an In-Cell Western assay to measure their ability to degrade the estrogen receptor in vitro. MCF7 cells, which are estrogen receptor positive, were plated at a cell density of […] into black walled clear bottom 96-well plates. Cells were incubated in phenol red free Dulbecco's Modified Eagle Media (DMEM) supplemented with 8% charcoal-stripped fetal bovine calf serum for 24 hours in a humidified 37° C. incubator. Concentrated stock compounds were diluted to 10× in complete media. Compounds were added to the plated cells in a dose-dependent manner ranging from 1E-12 to 1E-05 M and incubated for an additional 24 hours at 37° C. Culture medium was removed from the culture plates by gentle inversion. Cells were fixed in 4% paraformaldehyde in 1× phosphate buffered saline-calcium magnesium free (PBS-CMF) for 15 minutes at room temperature, washed 3 times for 5 minutes each in 1×PBS-CMF. […] ER protein expression was assessed by the Licor Odyssey CLx imaging system using Image Studio v5.2. Data is processed utilizing GraphPad Prism 7 by subtracting background from the vehicle and setting the vehicle to 100% ER activity, followed by comparing treated samples to vehicle.

The term IC50 denotes the concentration that inhibits the measured activity by half.

For `Cc1cc(F)cc(C)c1C(=O)c1sc2cc(O)ccc2c1Oc1ccc(OCCN2CCCCC2)cc1` [US10208011, Compound 106], at Estrogen receptor [1], the IC50 was less than 1000 nM. Turning to `Cc1cc(F)cc(C)c1C(=O)c1sc2cc(O)ccc2c1Oc1ccc(OCCN2CCCCCC2)cc1` [US10208011, Compound 107], the half-maximal inhibitory concentration (IC50) at Estrogen receptor [1] was less than 1000 nM. In the case of `Cc1cc(F)cc(C)c1C(=O)c1sc2cc(O)ccc2c1Oc1ccc(OCCN2CCCC2)cc1` [US10208011, Compound 108], the IC50 at Estrogen receptor [2] is less than 1000 nM.
